The record followed here is US11596639B2, “Substituted indole Mcl-1 inhibitors” (Vanderbilt University, priority 2016, dated 2023).

Where two headings read alike, the source gives them in different places. Where only a bound is given, the exact number is not on record here.

Test [1] deals with Mcl-1 (Homo sapiens (Human), UniProt Q07820). As to the kind of experiment: Fluorescence polarization anisotropy (FPA) competition assay, FITC-Bak or FITC-Bim BH3 peptide. In kind it is binding. The settings on record: read-out: Ki for Inhibition of Mcl-1 by FPA assay.
Chain of Mcl-1 (Q07820 172-327): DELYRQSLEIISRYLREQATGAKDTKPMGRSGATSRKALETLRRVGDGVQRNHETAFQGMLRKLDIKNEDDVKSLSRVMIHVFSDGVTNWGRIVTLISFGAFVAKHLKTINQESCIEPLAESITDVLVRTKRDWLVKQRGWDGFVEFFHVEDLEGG
For test [2], the system named is H929 human cancer cell lines. Put plainly: Cellular viability / proliferation (Cell TiterGlo, 72 h). In kind it is cell-based. Summed up:
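Plating is at 1,000 cells/well in 10% FBS medium; after 24 h, compound is added as a 2-fold series starting at 50 μM with under 1% DMSO.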
(In general: ATP-based viability assays read luminescence as a measure of living cells.)

Where [3] appears, read: Homo sapiens, NCI-H929, 72 h, read-out: GI50 on cellular proliferation of H929 human cancer cell lines, H929 cells, 72 h, Cell TiterGlo, 10% FBS.

As a reminder, the Ki is the dissociation constant of the complex between target and ligand, obtained from inhibition or displacement. With `Cc1cc(OCCCc2c3n(c4c(-c5c(C)nn(C)c5C)c(Cl)ccc24)[C@H](C)CN(c2cn(C)c4c(C(=O)O)cccc24)C3=O)cc(C)c1Cl` [Example 75, (R)-3-(7-Chloro-10-(3-(4-chloro-3,5-dimethylphenoxy)propyl)-4-methyl-1-oxo-6-(1,3,5-trimethyl-1H-pyrazol-4-yl)-3,4-dihydropyrazino[1,2-a]indol-2(1H)-yl)-1-methyl-1H-indole-7-carboxylic acid], in test [1], the Ki was below 1 nM. In test [2] (setting [3]), the GI50 was determined as 1100 nM.
On the same counts, the results for `COc1cc(N2C[C@@H](C)n3c(c(CCCOc4cc(C)c(Cl)c(C)c4)c4ccc(Cl)c(-c5c(C)nn(C)c5C)c43)C2=O)c2c(c1)cc(C(=O)O)n2C` [Example 342, (R)-7-(7-Chloro-10-(3-(4-chloro-3,5-dimethylphenoxy)propyl)-4-methyl-1-oxo-6-(1,3,5-trimethyl-1H-pyrazol-4-yl)-3,4-dihydropyrazino[1,2-a]indol-2(1H)-yl)-5-methoxy-1-methyl-1H-indole-2-carboxylic acid] are below 1 nM and 230 nM.
On the same counts, the results for `Cc1cc(OCCCc2c3n(c4c(-c5c(C)ncnc5C)c(Cl)ccc24)[C@H](C)CN(c2cccc4cc(C(=O)O)cnc24)C3=O)cc(C)c1Cl` [Example 227, 8-[(4R)-7-chloro-10-[3-(4-chloro-3,5-dimethyl-phenoxy)propyl]-6-(4,6-dimethylpyrimidin-5-yl)-4-methyl-1-oxo-3,4-dihydropyrazino[1,2-a]indol-2-yl]quinoline-3-carboxylic acid] are below 1 nM and 1300 nM.
On to `Cc1cc(OCCCc2c3n(c4c(-c5c(C)nn(C)c5C)c(Cl)ccc24)CCCN(c2cc(C(=O)O)cc4nn(CCN(C)C)cc24)C3=O)cc(C)c1Cl` [Example 28, 4-[8-chloro-11-[3-(4-chloro-3,5-dimethyl-phenoxy)propyl]-1-oxo-7-(1,3,5-trimethylpyrazol-4-yl)-4,5-dihydro-3H-[1,4]diazepino[1,2-a]indol-2-yl]-2-[2-(dimethylamino)ethyl]indazole-6-carboxylic acid], for which the inhibition constant (Ki) in test [1] came to 1.8 nM. Besides, in test [2] (setting [3]), the GI50 came out at 3700 nM.
On the same counts, the results for `Cc1cc(OCCCc2c3n(c4c(-c5c(C)nn(C)c5C)c(Cl)ccc24)[C@H](C)CN(c2cc(C(=O)O)cc4c2ccn4CCN2CCOCC2)C3=O)cc(C)c1Cl` [Example 96, (R)-4-(7-chloro-10-(3-(4-chloro-3,5-dimethylphenoxy)propyl)-4-methyl-1-oxo-6-(1,3,5-trimethyl-1H-pyrazol-4-yl)-3,4-dihydropyrazino[1,2-a]indol-2(1H)-yl)-1-(2-morpholinoethyl)-1H-indole-6-carboxylic acid] are 2.9 nM and 4700 nM.
On the same counts, the results for `Cc1cc(N2C[C@@H](C)n3c(c(CCCOc4cc(C)c(Cl)c(C)c4)c4ccc(Cl)c(-c5c(C)nn(C)c5C)c43)C2=O)c2c(c1)cc(C(N)=O)n2Cc1ccccn1` [Example 415, (R)-7-(7-Chloro-10-(3-(4-chloro-3,5-dimethylphenoxy)propyl)-4-methyl-1-oxo-6-(1,3,5-trimethyl-1H-pyrazol-4-yl)-3,4-dihydropyrazino[1,2-a]indol-2(1H)-yl)-5-methyl-1-(pyridin-2-ylmethyl)-1H-indole-2-carboxamide] are 3.4 nM and 510 nM.
On the same counts, the results for `Cc1cc(OCCCc2c3n(c4c(-c5c(C)nn(C)c5C)c(Cl)ccc24)[C@H](C)CN(c2cn(C)c4ccc(-c5ncn(CC6COC6)n5)cc24)C3=O)cc(C)c1Cl` [Example 475, (R)-7-Chloro-10-(3-(4-chloro-3,5-dimethylphenoxy)propyl)-4-methyl-2-(1-methyl-5-(1-(oxetan-3-ylmethyl)-1H-1,2,4-triazol-3-yl)-1H-indol-3-yl)-6-(1,3,5-trimethyl-1H-pyrazol-4-yl)-3,4-dihydropyrazino[1,2-a]indol-1(2H)-one] are 7 nM and 250 nM.
Take `Cc1cc(OCCCc2c3n(c4c(-c5c(C)nn(C)c5C)c(Cl)ccc24)[C@H](C)CN(c2cn(C)c4ccc([N+](=O)[O-])cc24)C3=O)cc(C)c1Cl` [Example 223, (4R)-7-chloro-10-[3-(4-chloro-3,5-dimethyl-phenoxy)propyl]-4-methyl-2-(1-methyl-5-nitro-indol-3-yl)-6-(1,3,5-trimethylpyrazol-4-yl)-3,4-dihydropyrazino[1,2-a]indol-1-one]: the Ki in test [1] was 1.1 nM. Also, the GI50 in test [2] (setting [3]) stood at 5000 nM.
As for `Cc1cc(OCCCc2c3n(c4c(-c5c(C)nn(C)c5C)c(Cl)ccc24)[C@H](C)CN(c2cccc4c2CCC4=O)C3=O)cc(C)c1Cl` [Example 203, (R)-7-Chloro-10-(3-(4-chloro-3,5-dimethylphenoxy)propyl)-4-methyl-2-(1-oxo-2,3-dihydro-1H-inden-4-yl)-6-(1,3,5-trimethyl-1H-pyrazol-4-yl)-3,4-dihydropyrazino[1,2-a]indol-1(2H)-one], the Ki in test [1] is 6 nM. Further, the GI50 in test [2] (setting [3]) came to 3900 nM.
Turning to `Cc1cc(OCCCc2c3n(c4c(-c5c(C)nn(C)c5C)c(Cl)ccc24)[C@H](C)CN(c2cc(OCC4CCN(C)C4)cc4c2cc(C(=O)O)n4C)C3=O)cc(C)c1Cl` (stereo partly shown) [Example 331, 4-((M, R)-7-Chloro-10-(3-(4-chloro-3,5-dimethylphenoxy)propyl)-4-methyl-1-oxo-6-(1,3,5-trimethyl-1H-pyrazol-4-yl)-3,4-dihydropyrazino[1,2-a]indol-2(1H)-yl)-1-methyl-6-((1-methylpyrrolidin-3-yl)methoxy)-1H-indole-2-carboxylic acid], the Ki in test [1] is 1.1 nM. For the same compound, the GI50 in test [2] (H929 cells, 72 h, Cell TiterGlo, 10% FBS, read-out: GI50 on cellular proliferation of H929 human cancer cell lines) was 2300 nM.
With `Cc1cc(OCCCc2c3n(c4c(-c5c(C)nn(CCN6CCCC6)c5C)c(Cl)ccc24)[C@H](C)CN(c2cn(C)c4cc(C(=O)O)ccc24)C3=O)cc(C)c1Cl` [Example 306, (R)-3-(7-chloro-10-(3-(4-chloro-3,5-dimethylphenoxy)propyl)-6-(3,5-dimethyl-1-(2-(pyrrolidin-1-yl)ethyl)-1H-pyrazol-4-yl)-4-methyl-1-oxo-3,4-dihydropyrazino[1,2-a]indol-2(1H)-yl)-1-methyl-1H-indole-6-carboxylic acid], in test [1], the Ki stood at 1.3 nM. In addition, in test [2] (setting [3]), the GI50 was 600 nM.
As to `Cc1cc(OCCCc2c3n(c4c(-c5c(C)nn(C)c5C)c(Cl)ccc24)[C@H](C)CN(c2cc(OCC4COC4)cc4cc(C(=O)O)n(C)c24)C3=O)cc(C)c1Cl` [Example 459, (R)-7-(7-Chloro-10-(3-(4-chloro-3,5-dimethylphenoxy)propyl)-4-methyl-1-oxo-6-(1,3,5-trimethyl-1H-pyrazol-4-yl)-3,4-dihydropyrazino[1,2-a]indol-2(1H)-yl)-1-methyl-5-(oxetan-3-ylmethoxy)-1H-indole-2-carboxylic acid], in test [1], the Ki worked out at 1 nM. The GI50 in test [2] (setting [3]) is 510 nM.
On the same counts, the results for `Cc1nnc(-c2ccc3c(c2)c(N2C[C@@H](C)n4c(c(CCCOc5cc(C)c(Cl)c(C)c5)c5ccc(Cl)c(-c6c(C)nn(C)c6C)c54)C2=O)cn3C)o1` [Example 337, (R)-7-Chloro-10-(3-(4-chloro-3,5-dimethylphenoxy)propyl)-4-methyl-2-(1-methyl-5-(5-methyl-1,3,4-oxadiazol-2-yl)-1H-indol-3-yl)-6-(1,3,5-trimethyl-1H-pyrazol-4-yl)-3,4-dihydropyrazino[1,2-a]indol-1(2H)-one] are 2.6 nM and 540 nM.
In the case of `Cc1cc(N2C[C@@H](C)n3c(c(CCCOc4cc(C)c(Cl)c(C)c4)c4ccc(Cl)c(-c5c(C)nn(C)c5C)c43)C2=O)c2c(c1)c(C(=O)O)cn2C` [Example 162, (R)-7-(7-chloro-10-(3-(4-chloro-3,5-dimethylphenoxy)propyl)-4-methyl-1-oxo-6-(1,3,5-trimethyl-1H-pyrazol-4-yl)-3,4-dihydropyrazino[1,2-a]indol-2(1H)-yl)-1,5-dimethyl-1H-indole-3-carboxylic acid], the Ki in test [1] was below 1 nM. In addition, the GI50 in test [2] (read-out: GI50 on cellular proliferation of H929 human cancer cell lines, H929 cells, 72 h, Cell TiterGlo, 10% FBS) worked out at 260 nM.
`Cc1cc(OCCCc2c3n(c4c(-c5c(C)nn(C)c5C)c(Cl)ccc24)[C@H](C)CN(c2cn(C)c4ccc(C(N)=O)cc24)C3=O)cc(C)c1Cl` [Example 221, 3-[(4R)-7-chloro-10-[3-(4-chloro-3,5-dimethyl-phenoxy)propyl]-4-methyl-1-oxo-6-(1,3,5-trimethylpyrazol-4-yl)-3,4-dihydropyrazino[1,2-a]indol-2-yl]-1-methyl-indole-5-carboxamide]: the Ki in test [1] is 2.5 nM. Also, the GI50 in test [2] (setting [3]) is 450 nM.
On the same counts, the results for `Cc1cc(OCCCc2c3n(c4c(-c5c(C)nn(C)c5C)c(Cl)ccc24)[C@H](C)CN(c2cccc4c2cc(C(=O)O)n4C)C3=O)cc(C)c1Cl` [Example 113, (R)-4-(7-Chloro-10-(3-(4-chloro-3,5-dimethylphenoxy)propyl)-4-methyl-1-oxo-6-(1,3,5-trimethyl-1H-pyrazol-4-yl)-3,4-dihydropyrazino[1,2-a]indol-2(1H)-yl)-1-methyl-1H-indole-2-carboxylic acid] are below 1 nM and 330 nM.
As to `Cc1cc(OCCCc2c3n(c4c(-c5c(C)nn(C)c5C)c(Cl)ccc24)[C@H](C)[C@@H](C)N(c2ccc(C(=O)O)cc2)C3=O)cc(C)c1Cl` [Example 142, 4-((3R,4R)-7-chloro-10-(3-(4-chloro-3,5-dimethylphenoxy)propyl)-3,4-dimethyl-1-oxo-6-(1,3,5-trimethyl-1H-pyrazol-4-yl)-3,4-dihydropyrazino[1,2-a]indol-2(1H)-yl)benzoic acid], the Ki in test [1] turned out to be 3.8 nM. Further, the GI50 in test [2] (setting [3]) was found to be 7400 nM.
